Results taken from patent US8153441B2, “Method for analyzing structure and purity of serotonin transporter imaging agent [123 I] ADAM and precursor SnADAM” (Institute of Nuclear Energy Research Atomic Energy Council, priority 2008, dated 2012).

What was measured:
[1] = Solution stability experiment of SnADAM-MeOH solution (HPLC purity after storage at room temperature); type: physicochemical; conditions: for Purity of tested samples: room temperature
Description: 15.3 ppm, 153 ppm and 306 ppm SnADAM (test sample)-MeOH solutions were prepared and stored at room temperature for three days, and then continuously subjected to HPLC analysis. Meanwhile, a portion of fresh 10-320 ppm SnADAM-MeOH solution is prepared each day to serve as calibration standard sample. The SnADAM chromatographic peak retention time (tR), linear least square regression equation, correlation coefficient (r), purity of the test sample, SD, and RSD of the calibration sample were calculated. Referring to Table 5, the linear correlation coefficients of the fresh calibration standards prepared in three days were all greater than 0.9996. After the test sample was stored at room temperature for three days, the SnADAM retention time RSD=0.31%, and the mean purity RSD=0.05%.

[2] = Forced degradation experiment of SnADAM (HPLC); type: physicochemical
Description: Three portions of 0.50 mg SnADAM were dissolved in MeOH solvent, respectively added with 1 M HCl solution, 1 M NaOH solution, and 3% H2O2 solution, and then reacted at room temperature for 30 min. The first two portions of solutions were respectively neutralized with 1 M NaOH and 1 M HCl and then added with suitable amounts of MeOH to dissolve the precipitate, while the third portion of solution was directly diluted with a suitable amount of MeOH after the reaction and then subjected to HPLC analysis. Another portion of 0.50 mg SnADAM was heated in an oven at 80° C. for 30 min, dissolved in MeOH solvent, and then subjected to HPLC analysis. […] Therefore, SnADAM can be separated from the impurities (as shown in FIG. 2) and the degradation products (as shown in FIGS. 3A-3D) without interfering with the quantitative results.

CCC[CH2][Sn]([CH2]CCC)([CH2]CCC)[c]1ccc(Sc2ccccc2CN(C)C)c(N)c1 [SnADAM, 2-((2-((Dimethylamino)methyl)phenyl)thio)-5-(tri-n-butyltin)-phenylamine]
Purity of tested samples ([1]; SnADAM-MeOH solution 15.3 ppm, day 1): 98.17 ± 0.17 (0.18%, n = 3)
Purity of tested samples ([1]; SnADAM-MeOH solution 15.3 ppm, day 2): 98.12 ± 0.21 (0.21%, n = 3)
Purity of tested samples ([1]; SnADAM-MeOH solution 15.3 ppm, day 3): 97.96 ± 0.73 (0.74%, n = 3)
Purity of tested samples ([1]; SnADAM-MeOH solution 153.0 ppm, day 1): 97.12 ± 0.15 (0.15%, n = 3)
Purity of tested samples ([1]; SnADAM-MeOH solution 153.0 ppm, day 2): 97.00 ± 0.25 (0.26%, n = 3)
Purity of tested samples ([1]; SnADAM-MeOH solution 153.0 ppm, day 3): 97.12 ± 0.04 (0.04%, n = 3)
Purity of tested samples ([1]; SnADAM-MeOH solution 306.0 ppm, day 1): 96.77 ± 0.07 (0.07%, n = 3)
Purity of tested samples ([1]; SnADAM-MeOH solution 306.0 ppm, day 2): 96.73 ± 0.06 (0.06%, n = 3)
Purity of tested samples ([1]; SnADAM-MeOH solution 306.0 ppm, day 3): 96.70 ± 0.20 (0.20%, n = 3)
Stability of SnADAM-MeOH solution (change in purity) ([1]; stored at room temperature for three days): no significant change in purity
Forced degradation ([2]; 1 M HCl solution, room temperature, 30 min): two major degradation products FD1 (tR=1.55 min) and FD2 (tR=1.80 min)
Forced degradation ([2]; 1 M NaOH solution, room temperature, 30 min): a major degradation product FD1 (tR=1.55 min)
Forced degradation ([2]; 3% H2O2 solution, room temperature, 30 min): a major degradation product FD1 (tR=1.55 min) having the same retention time as H2O2
Forced degradation ([2]; heated in an oven at 80° C. for 30 min): little effect on the degradation
